We go through 52 molecules from PMC5706701, “Development of a homogenous high-throughput assay for inositol hexakisphosphate kinase 1 activity” (PLoS ONE, 2017).

Counter-ions that a name gives are not always drawn. Like-named read-outs stand apart in the source and are kept apart here.

This assay concerns the target T1, Human IP6K1 (Homo sapiens, UniProt Q92551).
T1 construct: GST (N, cleaved yes); made in house; host or cells: C43 E. coli, pGEX-6P-2
The assay is described as follows: IP6K1 high-throughput screen of the Sigma LOPAC (ADP-Glo Max, single point).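 Note: final compound concentration 10µM in 5% DMSO.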 The class given is biochemical. Background: ADP-Glo turns the ADP formed in a reaction into a luminescent signal.

Setting [1] is: LOPAC single-point screen, ADP-Glo Max raw signal per well.
[2] abbreviates: LOPAC single-point screen, Z-score against plate average and StDev.
[3] abbreviates: Sigma LOPAC single-point screen, ADP-Glo Max raw signal per well.
The mark [4] stands for this setting: Sigma LOPAC single-point screen, Z-score from plate average and StDev.
Where [5] appears, read: LOPAC single-point screen, ADP-Glo Max luminescence raw signal per well.
[6] abbreviates: LOPAC single-point screen, Z-score from plate average and StDev.
Setting [7] is: LOPAC single-point screen, Z-score from raw signal with plate average and StDev.
Where [8] appears, read: LOPAC single-point screen, Z-score relative to plate average and StDev.

T1 sequence (Q92551 whole entry): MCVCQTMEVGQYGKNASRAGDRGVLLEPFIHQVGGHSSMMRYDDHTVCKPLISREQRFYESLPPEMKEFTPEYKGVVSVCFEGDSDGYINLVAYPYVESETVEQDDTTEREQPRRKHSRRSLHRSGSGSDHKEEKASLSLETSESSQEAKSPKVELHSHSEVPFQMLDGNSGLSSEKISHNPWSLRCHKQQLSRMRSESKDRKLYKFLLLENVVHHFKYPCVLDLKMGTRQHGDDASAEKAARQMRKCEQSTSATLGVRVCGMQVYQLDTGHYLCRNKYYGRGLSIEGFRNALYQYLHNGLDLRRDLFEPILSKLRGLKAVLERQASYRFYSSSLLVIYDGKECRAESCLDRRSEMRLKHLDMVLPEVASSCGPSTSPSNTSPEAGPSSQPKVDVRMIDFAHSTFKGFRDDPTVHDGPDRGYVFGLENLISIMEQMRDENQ

`CN1[C@@H]2CC[C@H]1C[C@@H](OC(c1ccccc1)c1ccccc1N)C2` (stereo partly shown) [Aminobenztropine]: the “Raw Signal” value under setting [1] was found to be 58792. In addition, under setting [2], the Z-score is 0.1548.

For the molecule `CCCNCC(O)COc1ccccc1C(=O)CCc1ccccc1` (stereo not shown) [Propafenone hydrochloride], the “Raw Signal” value under setting [1] worked out at 54187. Besides, the Z-score under setting [2] is -0.0347.

Turning to `O=C1CC2(CCCC2)CC(=O)N1CCCCN1CCN(c2ncccn2)CC1` [Buspirone hydrochloride], under setting [3], the “Raw Signal” value is 60893. The molecule also gave a Z-score under setting [4] of 0.5248.

`O=C1c2c(O)cc(O)cc2OC(c2ccc(O)c(O)c2)C1O` (racemic) [(±)-Taxifolin]: under setting [3], the “Raw Signal” value is reported as 61241. The same molecule gave a Z-score under setting [4] of 1.0136.

As to `COc1cc(Cc2cnc(N)nc2N)cc(OC)c1OC` [Trimethoprim], the “Raw Signal” value under setting [3] stood at 61776. Also, the Z-score under setting [4] is listed as 1.118.

`O=C(O)[C@@H]1C[C@H](C(=O)O)N1` [cis-Azetidine-2,4-dicarboxylic acid]: the “Raw Signal” value under setting [5] is 69033. This molecule gave a Z-score under setting [6] of 1.959.

Turning to `O=c1[nH]c2ccccc2n1CCCN1CCN(C(c2ccccc2)c2ccccc2)CC1` [Oxatomide], under setting [1], the “Raw Signal” value was found to be 55062. Under setting [2], this molecule displayed a Z-score of 0.1123.

On to `CN[C@@H](C)[C@H](O)c1ccccc1.CN[C@@H](C)[C@H](O)c1ccccc1.O=S(=O)(O)O` [(-)-Ephedrine hemisulfate], for which the “Raw Signal” value under setting [1] is 54708. The Z-score under setting [7] was -0.09323.

`NC(=O)OCC(COC(N)=O)c1ccccc1` [Felbamate]: under setting [3], the “Raw Signal” value came to 58283. This molecule also displayed a Z-score under setting [4] of 0.6328.

`N=C(N)NC(=O)c1nc(Cl)c(N2CCCCCC2)nc1N` [5-(N,N-hexamethylene)amiloride]: the “Raw Signal” value under setting [1] is 56870. This molecule also had a Z-score under setting [7] of -0.1837.

Turning to `C[N+](C)(C)CCOC(=O)CBr.[Br-]` [Bromoacetylcholine bromide], under setting [5], the “Raw Signal” value was 53767. Moreover, the Z-score under setting [8] is reported as -0.7302.

Consider `CS(=O)(=O)O.Cn1cc(C(F)(F)F)nc1-c1ccc(OCC(O)CNCCOc2ccc(O)c(C(N)=O)c2)cc1` (stereo not shown) [CGP 20712A methanesulfonate], for which the “Raw Signal” value under setting [3] is listed as 57129. Under setting [4], this molecule yielded a Z-score of 0.3985.

On to `N=C(N)NC(CCC(=O)O)C(=O)O` (stereo not drawn) [alpha-Guanidinoglutaric acid], for which the “Raw Signal” value under setting [1] was found to be 54052. Besides, under setting [7], the Z-score is given as -0.2265.

Regarding `CN(C)CCOC(=O)COc1ccc(Cl)cc1` [Centrophenoxine hydrochloride], under setting [5], the “Raw Signal” value came to 69002. Moreover, under setting [6], the Z-score was 1.953.

For the molecule `CNCCC(Oc1ccc(C(F)(F)F)cc1)c1ccccc1` (stereo not shown) [Fluoxetine hydrochloride], the “Raw Signal” value under setting [3] is 60043. For the same molecule, the Z-score under setting [4] was determined as 0.9903.

`CNC(=O)[C@H]1O[C@@H](n2cnc3c(NCc4cccc(I)c4)ncnc32)[C@H](O)[C@@H]1O` [IB-MECA]: under setting [5], the “Raw Signal” value is given as 49701. In addition, the Z-score under setting [8] was -0.7885.

Take `Cl.NCCc1ccc(O)cc1` [4-Hydroxyphenethylamine hydrochloride]: the “Raw Signal” value under setting [1] amounted to 54724. The molecule further had a Z-score under setting [7] of -0.2525.

`Cc1cccc(C)c1N=C1NCCCS1` [Xylazine hydrochloride]: the “Raw Signal” value is reported as 56727 and the Z-score was determined as 0.1366.

On to `CNCC(O)c1ccc(O)cc1` (racemic) [(±)-Synephrine], for which the “Raw Signal” value under setting [1] worked out at 56579. Moreover, the Z-score under setting [2] is reported as 0.1079.

For `Br.Oc1cc2c(c(Cl)c1O)CCNCC2c1ccccc1` (racemic) [(±)-6-Chloro-PB hydrobromide], under setting [1], the “Raw Signal” value came out at 55203. This molecule gave a Z-score under setting [7] of -0.1595.

Consider `Cl.Clc1ccc(N2CCN(Cc3c[nH]c4ncccc34)CC2)cc1` [L-745,870 hydrochloride], for which the “Raw Signal” value under setting [1] is 55866. Moreover, the Z-score under setting [2] worked out at 0.2474.

Take R(-)-SCH-12679 maleate: under setting [5], the “Raw Signal” value is recorded as 53479. The molecule also displayed a Z-score under setting [8] of -0.4944.

As to `CC(N)C(=O)OC(C)(C)Cc1ccc(Cl)cc1` (stereo not shown) [Alaproclate hydrochloride], the “Raw Signal” value under setting [5] amounted to 54794. Under setting [8], this molecule showed a Z-score of -0.5494.

Take `CC(=O)[C@H]1CC[C@H]2[C@@H]3CC[C@H]4C[C@H](O)CC[C@]4(C)[C@H]3C(=O)C[C@]12C` [5alpha-Pregnan-3alpha-ol-11,20-dione]: the “Raw Signal” value under setting [3] is recorded as 56964. Also, under setting [4], the Z-score worked out at 0.4319.

Consider `O=C(O)c1cc[c]([Hg][Cl])cc1` [4-Chloromercuribenzoic acid], for which, under setting [1], the “Raw Signal” value was found to be 56908. Besides, the Z-score under setting [7] is recorded as -0.177.

For the molecule `NC(Cc1ccc(Cl)cc1)C(=O)O` (racemic) [(±)-p-Chlorophenylalanine], the “Raw Signal” value under setting [5] worked out at 55203. For the same molecule, the Z-score under setting [8] is -0.4773.

In the case of `CCCN(CCC)CCc1c[nH]c2ccc(C(N)=O)cc12.O=C(O)/C=C\C(=O)O`, the “Raw Signal” value under setting [3] is 60214. Under setting [4], this molecule came in with a Z-score of 1.025.

Take `CCOC(=O)C1=C(C)NC(=S)NC1c1cccc(O)c1` (stereo not shown) [Monastrol]: the “Raw Signal” value under setting [1] stood at 54262. Besides, under setting [2], the Z-score is -0.0221.

For 17alpha-hydroxyprogesterone, the “Raw Signal” value under setting [3] was found to be 57278. The same molecule displayed a Z-score under setting [4] of 0.4287.

Turning to `CN(C)CCCO[C@@H]1[C@H]2OC(C)(C)O[C@H]2O[C@@H]1[C@H](O)CO` [Amiprilose hydrochloride], the “Raw Signal” value under setting [5] is listed as 53728. The same molecule registered a Z-score under setting [8] of -0.7371.

For the molecule `O=C(O)/C=C\C(=O)O.O=C(O)/C=C\C(=O)O.c1cc(CN2CCCCC2)cc(OCCCNc2nc3ccccc3s2)c1` [SKF 95282 dimaleate], the “Raw Signal” value under setting [1] is recorded as 54088. For the same molecule, under setting [7], the Z-score was -0.3761.

Turning to `O=c1cc(O)cc(/C=C/c2ccc(O)c(O)c2)o1` [Hispidin], the “Raw Signal” value under setting [5] came to 48484. For the same molecule, under setting [8], the Z-score is reported as -1.357.

Take `CCOC(=O)C1=C(C)NC(C)=C(C(=O)OC)C1c1cccc(Cl)c1Cl` (stereo not shown) [Felodipine]: the “Raw Signal” value under setting [5] is recorded as 52611. Also, the Z-score under setting [8] was -0.5191.

For `O=C(N[C@@H](Cc1ccccc1)C(=O)CCl)OCc1ccccc1` [Z-L-Phe chloromethyl ketone], the “Raw Signal” value under setting [1] was found to be 56278. For the same molecule, the Z-score under setting [7] is given as -0.288.

In the case of `CCCCCC(O)CCCC(=O)O.[Na]` (stereo not shown) [5-hydroxydecanoic acid sodium], the “Raw Signal” value under setting [1] was 53435. Further, the Z-score under setting [7] is reported as -0.3518.

As for `C[N+]1(C)[C@@H]2CC(OC(=O)[C@H](CO)c3ccccc3)C[C@H]1[C@@H]1O[C@@H]12.O=[N+]([O-])[O-]` (single isomer, unassigned; (-)) [(-)-Scopolamine methyl nitrate], the “Raw Signal” value under setting [1] is 57036. For the same molecule, the Z-score under setting [2] came to 0.1966.

Turning to `CCCCCCCCCCCCCCCC(=O)OC(CC(=O)O)C[N+](C)(C)C.[Cl-]` (racemic) [Palmitoyl-DL-Carnitine chloride], under setting [1], the “Raw Signal” value came to 51772. The same molecule registered a Z-score under setting [7] of -0.4405.

For `CCN(CC)CCCC(C)Nc1c2ccc(Cl)cc2nc2ccc(OC)cc12` (stereo not shown) [Quinacrine dihydrochloride], the “Raw Signal” value under setting [3] was 60550. This molecule registered a Z-score under setting [4] of 0.8794.

As for `CC(N)=NCc1cccc(CN)c1.Cl.Cl` [1400W dihydrochloride], the “Raw Signal” value under setting [1] was found to be 55005. This molecule also registered a Z-score under setting [7] of -0.1979.

On to `CC(C)C[C@H](N)CSSC[C@@H](N)CC(C)C.Cl.Cl` [L-Leucinethiol, oxidized dihydrochloride], for which the “Raw Signal” value under setting [1] was determined as 55535. Under setting [2], this molecule yielded a Z-score of 0.1918.

Turning to `Oc1cc2c(cc1O)CN(C(=S)NCCc1ccc(Cl)cc1)CCC2` [Capsazepine], under setting [1], the “Raw Signal” value came to 54995. In addition, the Z-score under setting [2] was -0.03494.

For `N#C/C(=C\c1c[nH]c2ccccc12)C(=O)c1ccc(O)c(O)c1` [Tyrphostin AG 808], under setting [1], the “Raw Signal” value stood at 55945. Further, the Z-score under setting [2] is listed as -0.01531.

On to `CC(=N)NCCC[C@H](N)C(=O)O.Cl`, for which the “Raw Signal” value under setting [1] stood at 54044. This molecule also had a Z-score under setting [2] of -0.05873.

Take `C=C/C(C)=C/[C@@]1(C)SC(=O)C(C)=C1O` [Thiolactomycin]: the “Raw Signal” value under setting [1] came to 51778. Under setting [7], this molecule displayed a Z-score of -0.4395.

Turning to `O=c1cc(-c2ccc(O)c(O)c2)oc2cc(O)cc(O)c12` [Luteolin], under setting [5], the “Raw Signal” value is on record as 50800. In addition, the Z-score under setting [8] is on record as -0.6038.

On to `CCCCCCCCCCCCCCCCCC(=O)OC(CC(=O)O)C[N+](C)(C)C.[Cl-]` (racemic) [DL-Stearoylcarnitine chloride], for which the “Raw Signal” value under setting [1] is recorded as 55265. Under setting [7], this molecule registered a Z-score of -0.1474.

Take `COc1cc(CNC(=O)CCCCCCC(C)C)ccc1O` [Dihydrocapsaicin]: under setting [1], the “Raw Signal” value is recorded as 52937. This molecule came in with a Z-score under setting [7] of -0.2447.

As to `NCC1(CC(=O)O)CCCCC1` [Gabapentin], the “Raw Signal” value under setting [5] came out at 51688. This molecule also came in with a Z-score under setting [8] of -0.7066.

As for `CC1CNCCN1S(=O)(=O)c1cccc2cnccc12.Cl.Cl` (stereo not shown) [H-7 dihydrochloride], the “Raw Signal” value under setting [5] stood at 51716. The molecule further registered a Z-score under setting [8] of -0.7009.

With `C[C@@H]1O[C@@H](O[C@H]2C[C@@H](O)[C@]3(CO)[C@H]4[C@H](O)C[C@]5(C)[C@@H]([C@@H]6COC(=O)C6)CC[C@]5(O)[C@@H]4CC[C@]3(O)C2)[C@H](O)[C@H](O)[C@H]1O` [Dihydroouabain], under setting [5], the “Raw Signal” value came to 48437. The Z-score under setting [8] is reported as -1.3668.

For `C[N+]1(C)CCOC(O)(c2ccc(-c3ccc(C4(O)C[N+](C)(C)CCO4)cc3)cc2)C1` (stereo not shown) [Hemicholinium-3], the Z-score under setting [7] is -0.115.

With `CC(C)NC(C)Cc1ccc(I)cc1` (stereo not shown) [Iofetamine hydrochloride], the “Raw Signal” value under setting [1] is 55439. Under setting [2], this molecule showed a Z-score of 0.1757.
